Test results reported in patent US20250340552A1, “COMPOUNDS, COMPOSITIONS AND METHODS OF TREATING DISORDERS” (HOTSPOT THERAPEUTICS, INC., priority 2022, published 2025).
Like-named read-outs stand apart in the source and are kept apart here.

Molecular target: T1, Cbl-B (Homo sapiens, UniProt Q13191)
T1 construct: MSD-Based Assay for Degradation of Cbl-B in THP-1 Cells; endogenous in cells; host or cells: THP-1 (title) / Jurkat (protocol text)
Assay: MSD-based assay for degradation of Cbl-B in THP-1 cells
Format: cell-based
Description: MSD-Based Assay for Degradation of Cbl-B in THP-1 Cells
Assay plates were then shaken at 600 rpm for 5 minutes, followed by incubation for 24 hours in the 37° C. TC incubator. […] Cell debris was then spun down at maximum speed (about 3200 g) for 30 min and lysates frozen in the −80° C. fridge. Meanwhile, MSD plates (L15XA-3) were coated overnight at 4° C. with 1 ug/mL capture antibody (Anti-Cbl-B antibody, 246C5a and Mouse mAB, ab54362). […] Blocking buffer was 3% Blocker A (MSD, R93BA-4) in TBST. Plates were washed 3× with 150 ul/well of 1×TBST and sample lysates (70 ul/well) then added, followed by shaking for 1 hr at RT, 600 rpm. […] Plates were again washed 3× with 150 ul/well of 1×TBST, followed by addition of Secondary Detection antibody, SULFO-TAG anti-species antibody (Anti Rabbit Antibody (R32AB-5) MSD, R32AB-1) at a final concentration of 1 ug/ml and 25 uL/well, followed by shaking for 1 hr at RT, 600 rpm. Plates were again washed 3× with 150 ul/well of 1×TBST, followed by addition of 1×MSD reading buffer (MSD, R92TC-2), 150 ul/well, diluted from 4× with water.
Compound Dmax were binned into A through D as follows: A indicates >70%, B indicates 50-70%, C indicates 30-50%, D indicates <30%.

[1] = Cbl-B degradation, Jurkat cells seeded (heading: THP-1 cells), 24 hours incubation, MSD readout
[2] = Cbl-B degradation, Jurkat cells seeded (heading: THP-1 cells), 24 hours incubation, MSD readout, read-out: Dmax

T1 sequence (Q13191 whole entry): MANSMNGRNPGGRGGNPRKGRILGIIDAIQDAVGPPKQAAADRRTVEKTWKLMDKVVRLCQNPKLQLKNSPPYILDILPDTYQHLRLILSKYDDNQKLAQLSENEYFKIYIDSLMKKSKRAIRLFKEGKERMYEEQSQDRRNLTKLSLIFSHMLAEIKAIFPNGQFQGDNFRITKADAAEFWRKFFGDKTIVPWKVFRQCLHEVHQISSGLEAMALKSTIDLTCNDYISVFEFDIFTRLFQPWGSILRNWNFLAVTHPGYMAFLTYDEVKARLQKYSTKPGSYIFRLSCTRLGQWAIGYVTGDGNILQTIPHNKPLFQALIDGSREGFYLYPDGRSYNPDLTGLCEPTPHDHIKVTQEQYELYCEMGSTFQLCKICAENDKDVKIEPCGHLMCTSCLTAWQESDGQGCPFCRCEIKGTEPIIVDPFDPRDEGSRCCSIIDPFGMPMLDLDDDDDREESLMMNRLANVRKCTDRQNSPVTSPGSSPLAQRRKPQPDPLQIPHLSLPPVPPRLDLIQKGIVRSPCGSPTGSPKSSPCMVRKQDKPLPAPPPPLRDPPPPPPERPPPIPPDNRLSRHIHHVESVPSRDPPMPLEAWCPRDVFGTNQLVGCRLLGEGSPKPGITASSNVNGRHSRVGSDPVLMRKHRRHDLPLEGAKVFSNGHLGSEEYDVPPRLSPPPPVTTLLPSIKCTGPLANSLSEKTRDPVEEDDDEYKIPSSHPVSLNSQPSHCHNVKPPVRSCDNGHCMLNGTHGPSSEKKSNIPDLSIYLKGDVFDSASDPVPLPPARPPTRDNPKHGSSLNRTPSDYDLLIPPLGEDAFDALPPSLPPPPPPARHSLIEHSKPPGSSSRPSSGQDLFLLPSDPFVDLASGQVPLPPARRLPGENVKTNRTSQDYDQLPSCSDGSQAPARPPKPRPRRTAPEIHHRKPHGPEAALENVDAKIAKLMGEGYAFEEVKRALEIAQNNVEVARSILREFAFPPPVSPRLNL

Compound | DC50 [1] | Dmax [2] | Dmax (THP-1)
Cn1cnnc1CC1(c2cccc(-n3cc4c(C(F)(F)F)cc(CN5CC[C@H](OCCOCc6ccc(COCCNc7cccc8c7C(=O)N(C7CCC(=O)NC7=O)C8=O)cc6)C5)cn4c3=O)c2)COC1 (some centres unmarked) [Compound 46] | > 10000 nM | 30 to 50% | –
Cn1cnnc1[C@@H](c1cccc(-n2cc3c(C(F)(F)F)cc(CN4CCC(OCCOCc5ccc(COCCNc6cccc7c6C(=O)N(C6CCC(=O)NC6=O)C7=O)cc5)CC4)cn3c2=O)c1)C1CCC1 (single isomer, unassigned) [Compound 5] | > 10000 nM | < 30% | –
Cn1cnnc1CC1(c2cccc(-n3cc4c(C(F)(F)F)cc(CN5CCC(OCc6ccc(CN7CCN(c8ccc9c(c8)CN([C@@H]8CCC(=O)NC8=O)C9=O)CC7)cc6)CC5)cn4c3=O)c2)COC1 (single isomer, unassigned) [Compound 93] | 30 to 300 nM | 50 to 70% | –
Cn1cnnc1[C@@H](c1cccc(-n2cc3c(C(F)(F)F)cc(CN4CCN(CCc5ccc(C6CCN(c7ccc8c(c7)CN([C@@H]7CCC(=O)NC7=O)C8=O)CC6)cc5)CC4)cn3c2=O)c1)C1CCC1 [Compound 227] | 30 to 300 nM | 50 to 70% | –
Cn1cnnc1[C@@H](c1cccc(-n2cc3c(C(F)(F)F)cc(CN4CCC[C@H](OCc5ccc(CN6CCN(c7ccc8c(c7)CN([C@H]7CCC(=O)NC7=O)C8=O)CC6)cc5)C4)cn3c2=O)c1)C1CCC1 [Compound 82] | < 30 nM | – | –
Cn1cnnc1[C@@H](c1cccc(-n2cc3c(C(F)(F)F)cc(CN4CCC[C@@H](COCc5ccc(CN6CCN(c7ccc8c(c7)CN([C@H]7CCC(=O)NC7=O)C8=O)CC6)cc5)C4)cn3c2=O)c1)C1CCC1 (single isomer, unassigned) [Compound 234] | – | – | > 70%
Cn1cnnc1CC1(c2cccc(-n3cc4c(C(F)(F)F)cc(CN5CCC(CC(=O)N6CCC(CC7CCN(c8ccc9c(c8)CN([C@@H]8CCC(=O)NC8=O)C9=O)CC7)CC6)CC5)cn4c3=O)c2)COC1 (single isomer, unassigned) [Compound 257] | 30 to 300 nM | – | 50 to 70%
CN(CC1CCN(Cc2cc(C(F)(F)F)c3cn(-c4cccc([C@H](c5nncn5C)C5CCC5)c4)c(=O)n3c2)CC1)C(=O)c1ccc(C2CCN(c3ccc4c(c3)CN([C@H]3CCC(=O)NC3=O)C4=O)CC2)cc1 (single isomer, unassigned) [Compound 200] | < 30 nM | > 70% | –
Cn1cnnc1[C@@H](c1cccc(-n2cc3c(C(F)(F)F)cc(CN4CCC(OCCCN5CCN(c6ccc7c(c6)CN([C@H]6CCC(=O)NC6=O)C7=O)CC5)CC4)cn3c2=O)c1)C1CCC1 (single isomer, unassigned) [Compound 72] | > 10000 nM | 30 to 50% | –
CN(CCC(=O)N1CCC(CN2CCN(c3ccc4c(c3)CN([C@@H]3CCC(=O)NC3=O)C4=O)CC2)CC1)Cc1cc(C(F)(F)F)c2cn(-c3cccc([C@H](c4nncn4C)C4CCC4)c3)c(=O)n2c1 (single isomer, unassigned) [Compound 119] | > 10000 nM | < 30% | –
Cn1cnnc1[C@@H](c1cccc(-n2cc3c(C(F)(F)F)cc(CN4CCC(CC(=O)N5CCC(CC6CCN(c7ccc8c(c7)CN([C@@H]7CCC(=O)NC7=O)C8=O)CC6)CC5)CC4)cn3c2=O)c1)C1CCC1 [Compound 175] | > 10000 nM | – | < 30%
CN(CC1CCN(Cc2cc(C(F)(F)F)c3cn(-c4cccc(C5(Cc6nncn6C)COC5)c4)c(=O)n3c2)CC1)C(=O)c1ccc(N2CCN(c3ccc4c(c3)CN([C@H]3CCC(=O)NC3=O)C4=O)CC2)cc1 [Compound 166] | < 30 nM | > 70% | –
Cn1cnnc1[C@@H](c1cccc(-n2cc3c(C(F)(F)F)cc(CN4CC[C@@H](OCCOCc5ccc(COCCNc6cccc7c6C(=O)N(C6CCC(=O)NC6=O)C7=O)cc5)C4)cn3c2=O)c1)C1CCC1 (some centres unmarked) [Compound 59] | 300 to 1000 nM | 30 to 50% | –
Cn1cnnc1[C@@H](c1cccc(-n2cc3c(C(F)(F)F)cc(CN4CCC(OCc5ccc(C(=O)N6CCN(c7ccc8c(c7)CN([C@@H]7CCC(=O)NC7=O)C8=O)CC6)cc5)CC4)cn3c2=O)c1)C1CCC1 (single isomer, unassigned) [Compound 157] | > 10000 nM | < 30% | –
Cn1cnnc1[C@@H](c1cccc(-n2cc3c(C(F)(F)F)cc(CN4CC[C@H](OCCOCc5ccc(COCCNc6cccc7c6C(=O)N(C6CCC(=O)NC6=O)C7=O)cc5)C4)cn3c2=O)c1)C1CCC1 (some centres unmarked) [Compound 60] | 300 to 1000 nM | 30 to 50% | –
CO[C@H]1C[C@](c2cccc(-n3cc4c(C(F)(F)F)cc(CN5CCC(CN(C)C(=O)c6ccc(N7CCN(c8ccc9c(c8)CN([C@@H]8CCC(=O)NC8=O)C9=O)CC7)cc6)CC5)cn4c3=O)c2)(c2nncn2C)C1 [Compound 168] | > 10000 nM | < 30% | –
CN(CCN(C)C(=O)c1cc(C(F)(F)F)c2cn(-c3cccc([C@H](c4nncn4C)C4CCC4)c3)c(=O)n2c1)C(=O)c1ccc(C2CCN(c3ccc4c(c3)CN([C@H]3CCC(=O)NC3=O)C4=O)CC2)cc1 (single isomer, unassigned) [Compound 198] | > 10000 nM | < 30% | –
Cn1cnnc1[C@@H](c1cccc(-n2cc3c(C(F)(F)F)cc(CN4CCC(N5CCC(CN6CCN(c7ccc8c(c7)CN([C@H]7CCC(=O)NC7=O)C8=O)CC6)CC5)CC4)cn3c2=O)c1)C1CCC1 [Compound 136] | 30 to 300 nM | – | –
Cn1cnnc1[C@@H](c1cccc(-n2cc3c(C(F)(F)F)cc(CN4CCC(CC(=O)N5CCC(c6ccc(-c7ccc8c(c7)CN([C@H]7CCC(=O)NC7=O)C8=O)cc6)CC5)CC4)cn3c2=O)c1)C1CCC1 [Compound 182] | < 30 nM | 30 to 50% | –
Cn1cnnc1CC1(c2cccc(-n3cc4c(C(F)(F)F)cc(CN5CCC[C@@H](OCCN6CCC(CN7CCN(c8ccc9c(c8)CN([C@@H]8CCC(=O)NC8=O)C9=O)CC7)CC6)C5)cn4c3=O)c2)COC1 (single isomer, unassigned) [Compound 49] | 300 to 1000 nM | 50 to 70% | –
Cn1cnnc1[C@@H](c1cccc(-n2cc3c(C(F)(F)F)cc(CN4CCC(OCCOCc5ccc(CN6CCN(c7cccc8c7C(=O)N(C7CCC(=O)NC7=O)C8=O)CC6)cc5)CC4)cn3c2=O)c1)C1CCC1 (some centres unmarked) [Compound 24] | > 10000 nM | < 30% | –
Cn1cnnc1CC1(c2cccc(-n3cc4c(C(F)(F)F)cc(CN5CCN(CC(=O)N6CCC(CN7CCN(c8ccc9c(c8)CN([C@@H]8CCC(=O)NC8=O)C9=O)CC7)CC6)CC5)cn4c3=O)c2)COC1 (single isomer, unassigned) [Compound 133] | 30 to 300 nM | > 70% | –
CN(CCOCc1cc(C(F)(F)F)c2cn(-c3cccc([C@H](c4nncn4C)C4CCC4)c3)c(=O)n2c1)C(=O)c1ccc(N2CCN(c3ccc4c(c3)CN([C@H]3CCC(=O)NC3=O)C4=O)CC2)cc1 (single isomer, unassigned) [Compound 148] | 30 to 300 nM | 30 to 50% | –
Cn1cnnc1CC1(c2cccc(-n3cc4c(C(F)(F)F)cc(CN5CC[C@@H](OCCOCc6ccc(COCCNc7cccc8c7C(=O)N(C7CCC(=O)NC7=O)C8=O)cc6)C5)cn4c3=O)c2)COC1 (some centres unmarked) [Compound 45] | 300 to 1000 nM | 50 to 70% | –
CN(CC1CCN(Cc2cc(C(F)(F)F)c3cn(-c4cccc(C5(Cc6nncn6C)COC5)c4)c(=O)n3c2)CC1)C(=O)c1ccc(N2CCN(c3ccc4c(c3)CN([C@@H]3CCC(=O)NC3=O)C4=O)CC2)cc1 [Compound 165] | 1000 to 10000 nM | 30 to 50% | –
